Data as given in patent US11319298B2 (Merck Sharp & Dohme Corp., priority 2016, dated 2022).

Target: T1, human M4 muscarinic acetylcholine receptor (Homo sapiens, UniProt P08173)
T1 construct: expressed in transfected cells; host or cells: CHO-K1
T1 sequence (P08173 1-479): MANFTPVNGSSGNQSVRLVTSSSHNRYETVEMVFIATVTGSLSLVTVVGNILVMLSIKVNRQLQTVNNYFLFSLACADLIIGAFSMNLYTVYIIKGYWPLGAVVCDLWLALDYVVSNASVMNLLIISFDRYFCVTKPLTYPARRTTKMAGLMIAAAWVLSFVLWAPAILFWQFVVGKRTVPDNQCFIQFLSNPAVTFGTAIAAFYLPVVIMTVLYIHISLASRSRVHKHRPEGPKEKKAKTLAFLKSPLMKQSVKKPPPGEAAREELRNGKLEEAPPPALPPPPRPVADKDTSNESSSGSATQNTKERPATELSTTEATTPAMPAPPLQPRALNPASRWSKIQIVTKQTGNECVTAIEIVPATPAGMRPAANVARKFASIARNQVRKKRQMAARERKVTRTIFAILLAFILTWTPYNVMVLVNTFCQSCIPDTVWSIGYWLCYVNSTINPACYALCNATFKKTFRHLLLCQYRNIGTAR
Assay: human FLIPR-based M4 PAM assay, CHO-K1 cells stably transfected with human M4 receptor and chimeric G-protein Gαqi5
Assay type: cell-based
Conditions: inflection point (IP) of dose response curve; acetylcholine added at 20% of maximum response; CHO-K1 human M4/Gαqi5, FLIPR Tetra
Description: In a typical experiment the M4 muscarinic acetylcholine receptor modulating activity of the compounds of the present invention was determined in accordance with the following experimental method. CHO-K1 cells stably transfected with human M4 receptor and chimeric G-protein Gαqi5 (Coward P, et al., Analytical Biochemistry, 270:242-248 (1999)) are thawed from liquid N2 storage, resuspended in growth medium, plated in black, clear bottom 384 well plates, and incubated 16-20 hours at 37° C., 5% CO2. On the day of assay, growth medium is removed, the cells are washed 2 times with wash buffer, and cells are incubated in dye loading buffer at 37° C., 5% CO2 for ˜1 hour. Following dye loading the cell plates are placed in a FLIPR Tetra instrument and while monitoring dye fluorescence (excitation […]), 10 uL of test substance at increasing concentrations is added, and fluorescence values are recorded for 4 min. Next, 10 uL of acetylcholine is added (final concentration calculated so as to achieve 20% of the maximum acetycholine response), and the fluorescence reading is continued for 3.5 min. In some cases, a third addition of acetylcholine (final concentration calculated to achieve 70% of the maximal acetylcholine response) is performed. The resulting dose response curves are fit to a 4 parameter logistic equation and the final result is determined as the inflection point (IP) of the curve
CHO-K1 cells stably transfected with human M4 receptor and chimeric G-protein Gαqi5 are thawed from liquid N2 storage, resuspended in growth medium, plated in black, clear bottom 384 well plates, and incubated 16-20 hours at 37° C., 5% CO2.
On the day of assay, growth medium is removed, the cells are washed 2 times with wash buffer, and cells are incubated in dye loading buffer at 37° C., 5% CO2 for ˜1 h. Following dye loading the cell plates are placed in a FLIPR Tetra instrument and while monitoring dye fluorescence ([…]), 10 uL of test substance at increasing concentrations is added, and fluorescence values are recorded for 4 min. Next, 10 uL of acetylcholine is added (final concentration calculated so as to achieve 20% of the maximum acetycholine response), and the fluorescence reading is continued for 3.5 min. In some cases, a third addition of acetylcholine (final concentration calculated to achieve 70% of the maximal acetylcholine response) is performed.

In order of rising EC50:
1. COc1ccc(OC2CCN(c3nnc(C(=O)Nc4ccncc4)cc3C)CC2)cn1 [Example 120, 6-{4-[(6-methoxypyridin-3-yl)oxy]piperidin-1-yl}-5-methyl-N-pyridin-4-ylpyridazine-3-carboxamide]  0.096 µM
2. Cc1cc(C(=O)NCc2ccncc2)nnc1N1CCC(Oc2cccnc2)CC1 [Example 122, 5-methyl-N-(pyridin-4-ylmethyl)-6-[4-(pyridin-3-yloxy)piperidin-1-yl]pyridazine-3-carboxamide]  0.101 µM
3. COc1ccc(OC2CCN(c3nnc(C(N)=O)cc3C)CC2)cn1 [Example 127, 6-{4-[(6-methoxypyridin-3-yl)oxy]piperidin-1-yl}-5-methylpyridazine-3-carboxamide]  0.114 µM
4. Cc1c(Cl)nc(CO)nc1N1CCC(Oc2ccc3c(ccn3C)c2)CC1 [Example 29, (4-chloro-5-methyl-6-(4-((1-methyl-1H-indol-5-yl)oxy)piperidin-1-yl)pyrimidin-2-yl)methanol]  0.126 µM
5. Cc1cc(C(=O)NC2CCc3ncccc3C2)nnc1N1CCC(OCC2CC2)CC1 (stereo not drawn) [Example 133, 6-[4-(cyclopropylmethoxy)piperidin-1-yl]-5-methyl-N-(5,6,7,8-tetrahydroquinolin-6-yl)pyridazine-3-carboxamide]  0.142 µM
6. COc1ccc(OC2CCN(c3nnc(C(=O)N[C@H]4CCc5cccnc5C4)cc3C)CC2)cn1 [Example 126B, (S)-6-{4-[(6-methoxypyridin-3-yl)oxy]piperidin-1-yl}-5-methyl-N-(5,6,7,8-tetrahydroquinolin-7-yl)pyridazine-3-carboxamide]  0.159 µM
7. Cc1nc(Cl)c(C)c(N2CCC(Oc3cccnc3)CC2)n1 [Example 12, 4-chloro-2,5-dimethyl-6-(4-(pyridin-3-yloxy)piperidin-1-yl)pyrimidine]  0.292 µM
8. COc1ccc(OC2CCN(c3nnc(C(=O)NCCn4ccnc4)cc3C)CC2)cn1 [Example 162, N-[2-(1H-imidazol-1-yl)ethyl]-6-{4-[(6-methoxypyridin-3-yl)oxy]piperidin-1-yl}-5-methylpyridazine-3-carboxamide]  0.306 µM
9. COc1ccc(OC2CCN(c3nnc(C(=O)NC4CCc5ncccc5C4)cc3C)CC2)cn1 (stereo not drawn) [Example 163, 6-{4-[(6-methoxypyridin-3-yl)oxy]piperidin-1-yl}-5-methyl-N-(5,6,7,8-tetrahydroquinolin-6-yl)pyridazine-3-carboxamide]  0.325 µM
10. COC(=O)c1cc(C)c(N2CCC(Oc3ccc(OC)nc3)CC2)nc1F [Example 102, Methyl 2-fluoro-6-(4-((6-methoxypyridin-3-yl)oxy)piperidin-1-yl)-5-methylnicotinate]  0.378 µM
11. Cc1c(Cl)nc(CO)nc1N1CC[C@@H](Oc2ccc3c(c2)C(=O)N(C)C3)[C@@H](F)C1 [Example 43, 6-(((3S,4R)-1-(6-chloro-2-(hydroxymethyl)-5-methylpyrimidin-4-yl)-3-fluoropiperidin-4-yl)oxy)-2-methylisoindolin-1-one]  0.378 µM
12. Cc1cc(C(=O)NC2CCc3cnccc3C2)nnc1N1CCC(Oc2cccc(C#N)c2)CC1 (stereo not drawn) [Example 172, 6-[4-(3-cyanophenoxy)piperidin-1-yl]-5-methyl-N-(5,6,7,8-tetrahydroisoquinolin-6-yl)pyridazine-3-carboxamide]  0.508 µM
13. COc1ccc(OC2CCN(c3ncnc(N4CCc5scnc5C4)c3C)CC2)cn1 [Example 229, 5-(6-(4-((6-methoxypyridin-3-yl)oxy)piperidin-1-yl)-5-methylpyrimidin-4-yl)-4,5,6,7-tetrahydrothiazolo[4,5-c]pyridine]  0.807 µM
14. CSc1ncc(C)c(N2CCC(Oc3cccnc3)CC2)n1 [Example 20, 5-methyl-2-(methylthio)-4-(4-(pyridin-3-yloxy)piperidin-1-yl)pyrimidine]  3.06 µM
15. COc1ccc(OC2CCN(c3ncnc(NCCC(F)(F)F)c3C)CC2)cn1 [Example 239, 6-(4-((6-methoxypyridin-3-yl)oxy)piperidin-1-yl)-5-methyl-N-(3,3,3-trifluoropropyl)pyrimidin-4-amine]  3.2 µM
